US20240299400A1, “Transcription Factor GLI1 Inhibitors and Uses Thereof” (University of Connecticut, priority 2023, published 2024)

Key:
PANC-1 (pancreatic) = assay: MTS anti-proliferative assay in PANC-1 cells; type: cell-based; conditions: Homo sapiens, PANC-1; Table 8, 48 h, mean ± SEM
Protocol: (§1) Cell viability was assessed by MTS proliferation assay kit (Promega) per manufacturer's protocol. Briefly, 2×10^4 cells were plated in a 96-well plate in 100 μL growth medium to make the cell population at ˜80% confluence. After 24 h, 1 μL drug solution was added to each well. DMSO was used as vehicle compound. After 48 h incubation (37° C., 5% CO2), 20 μL of freshly prepared 3-(4,5-dimethylthiazol-2-yl)-5-(3-carboxymethoxyphenyl)-2-(4-sulfophenyl)-2H-tetrazolium (MTS)/phenazine methosulfate (PMS) solution was added to each well, and the plate was returned to the incubator for 1 h. Absorbance at 490 nm was recorded, and the result was analyzed by GraphPad Prism 5. GI50 values represent mean±SEM for at least two separate experiments performed in triplicate.

GLI1 mRNA expression [1] = assay: RT-qPCR GLI1 mRNA expression in Sufu-KO MEFs; type: cell-based, mouse; conditions: Mus musculus, Ave ± SEM, read-out: RT-qPCR, IC50 Sufu-KO
Protocol: (§2) ASZ001 and Sufu-KO cells were seeded in 96-well plates (10,000/well, 100 μL) and incubated overnight under growth conditions. On the second day, ‘growth’ media was removed and replaced by ‘assay’ media (100 μL). On the third day, cells were treated with a serial dilution of drugs or DMSO for 48 h. mRNA expression was determined through Taqman Fast Cells-to-CT Kit (#4399003) per the manufacturer's instructions. In brief, cells were washed with chilled PBS, then mixed with lysis solution containing DNase I and incubated at RT for 5 min. Stop solution was then added to quench the lysis reagents. cDNA was then synthesized through a BioRad MyCycler following addition of reverse transcriptase. Finally, the cDNA was amplified through an ABI 7500 system following addition of Taqman Fast Universal PCR Master Mix and Taqman Gene Expression Primer. Relative gene expression levels were computed by the ΔΔCt method. Values represent mRNA expression relative to DMSO control (set at 1.0). Data were analyzed using GraphPad Prism, and IC50 values are the mean±SEM for at least two separate experiments performed in triplicate. Primers used are as follows: mouse ActB (Mm00607939_s1); mouse GLI1 (Mm00494645_ml); mouse Gli2 (Mm01293117_ml); mouse Ptch1 (Mm00436026_ml); mouse Hhip (Mm00469580_ml).

ASZ001 cells = assay: MTS anti-proliferative assay in ASZ001 cells; type: cell-based, murine; conditions: Mus musculus, ASZ001, Ave ± SEM
Protocol: as §1

GLI1 mRNA expression [2] = assay: RT-qPCR GLI1 mRNA expression in ASZ001 BCC cells; type: cell-based, mouse; conditions: Mus musculus, Ave ± SEM, read-out: RT-qPCR, IC50 ASZ001
Protocol: as §2

DAOY (MB) = assay: MTS anti-proliferative assay in DAOY cells; type: cell-based; conditions: Homo sapiens, Daoy; Table 8, 48 h, mean ± SEM
Protocol: as §1

GLI1-ZFD = target: T1, GLI1-ZFD (Homo sapiens, UniProt P08151); assay: Microscale thermophoresis (MST) binding to GLI1-ZFD
T1 construct: GLI1-ZFD Expression and Purification; made in house
T1 sequence (P08151 234-388 limits assumed): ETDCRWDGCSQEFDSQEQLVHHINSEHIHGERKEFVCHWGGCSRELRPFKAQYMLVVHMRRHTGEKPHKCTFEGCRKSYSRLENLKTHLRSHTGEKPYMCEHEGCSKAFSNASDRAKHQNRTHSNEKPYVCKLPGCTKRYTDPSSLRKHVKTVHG
Protocol: The protein expression and purification experiments followed the previous reported procedures [C. A. Maschinot, et al., Synthesis and evaluation of third generation vitamin D3 analogues as inhibitors of hedgehog signaling. Euro. J. Med. Chem. 162 (2019) 495-506].
GLI1 protein labeling was performed through the Monolith Protein Labeling Kit RED-NHS 2nd Generation (Nanotemper #MO-LO11) per the manufacturer's instructions. Briefly, GLI1 (100 μg, 1 mg/mL) underwent buffer exchange to remove incompatible ingredients like Tris or DTT. Proteins in the Labeling Buffer were incubated with freshly prepared dye (˜3-fold excess of dye) for 30 min at RT in the dark. Unreacted ‘free’ dye was removed by a gel-filtration column. Protein concentration and degree-of-labeling were calculated by measuring absorption at 280 nm and 650 nm. For each assay, 200 nM GLI1 in MST Buffer was mixed with compound dilution in DMSO (DMSO<5%, v/v). The mixture was then loaded to a capillary and the thermophoresis was subsequently determined through Monolith NT.115 station. Results were analyzed by MO.Affinity Analysis software and visualized by Graphpad Prism. MST Buffer: 50 mM HEPES, pH 8.3, 100 mM NaCl.

Cc1ccc2ccc(C(Nc3ccccn3)c3ccc(N4CCCC4)cc3)c(O)c2n1 (stereo not shown) [Compound 43, 7-((4-(Pyrrolidin-1-yl)phenyl)(pyridin-2-ylamino)methyl)-2-methylquinolin-8-ol]
GI50 (PANC-1 (pancreatic)): 29.6 ± 5.2 µM
IC50 (GLI1 mRNA expression [1]; Table 7, GLI1 mRNA): 1.2 ± 0.6 µM
GI50 (ASZ001 cells; Table 7, 48 h): 8.8 ± 2.4 µM
IC50 (GLI1 mRNA expression [2]; ASZ001, Table 7, GLI1 mRNA): 1.3 ± 0.3 µM
GI50 (DAOY (MB)): 12.8 ± 1.9 µM

Cc1ccc2ccc(C(Nc3ccccn3)c3ccc(-n4ccnc4)cc3)c(O)c2n1 (stereo not shown) [Compound 50, 7-((4-(1H-Imidazol-1-yl)phenyl)(pyridin-2-ylamino)methyl)-2-methylquinolin-8-ol]
IC50 (GLI1 mRNA expression [1]; Table 7, GLI1 mRNA): 3.8 ± 0.7 µM
Kd (GLI1-ZFD; Table 7, Ave ± SEM): 18.8 ± 5.2 µM
GI50 (ASZ001 cells; Table 7, 48 h): > 100 µM
IC50 (GLI1 mRNA expression [2]; ASZ001, Table 7, GLI1 mRNA): > 25 µM

Cc1ccc2ccc(C(Nc3ccccn3)c3ccc(-n4cccc4)cc3)c(O)c2n1 (stereo not shown) [Compound 49, 7-((4-(1H-Pyrrol-1-yl)phenyl)(pyridin-2-ylamino)methyl)-2-methylquinolin-8-ol]
GI50 (PANC-1 (pancreatic)): > 100 µM
IC50 (GLI1 mRNA expression [1]; Table 7, GLI1 mRNA): 1.1 ± 0.4 µM
Kd (GLI1-ZFD; Table 7, Ave ± SEM): 28.5 ± 7.2 µM
GI50 (ASZ001 cells; Table 7, 48 h): 91.7 ± 21 µM
IC50 (GLI1 mRNA expression [2]; ASZ001, Table 7, GLI1 mRNA): 14.2 ± 2.4 µM

CCN(CC)c1ccc(C(Nc2ccccn2)c2ccccc2O)cc1 (stereo not shown) [Compound 18, 2-((4-Diethylaminophenyl)(pyridin-2-ylamino)methyl)phenol]
GI50 (PANC-1 (pancreatic)): > 100 µM
IC50 (GLI1 mRNA expression [1]; Table 5, GLI1 mRNA): > 25 µM
Kd (GLI1-ZFD; Table 5, Ave ± SEM): > 125 µM
GI50 (ASZ001 cells; Table 5, 48 h): > 100 µM
IC50 (GLI1 mRNA expression [2]; ASZ001, Table 5, GLI1 mRNA): 15.2 ± 5 µM

Cc1ccc2ccc(C(Nc3ccccn3)c3ccc(-n4ccc5ccccc54)cc3)c(O)c2n1 (stereo not shown) [Compound 47, 7-((4-(1H-indol-1-yl)phenyl)(pyridin-2-ylamino)methyl)-2-methylquinolin-8-ol]
IC50 (GLI1 mRNA expression [1]; Table 7, GLI1 mRNA): 1.7 ± 0.3 µM
GI50 (ASZ001 cells; Table 7, 48 h): 62.3 ± 13.5 µM
IC50 (GLI1 mRNA expression [2]; ASZ001, Table 7, GLI1 mRNA): 10.5 ± 3.2 µM

CS(=O)(=O)c1ccc(C(=O)Nc2ccc(Cl)c(-c3ccccn3)c2)c(Cl)c1 [GDC-0449, reference compound]
GI50 (PANC-1 (pancreatic)): 80.7 ± 14.2 µM
IC50 (GLI1 mRNA expression [1]; Table 5, GLI1 mRNA): > 25 µM
GI50 (ASZ001 cells; Table 5, 48 h): 73.6 ± 13.7 µM
IC50 (GLI1 mRNA expression [2]; ASZ001, Table 5, GLI1 mRNA): 0.04 ± 0.01 µM

Cc1ccc2c(C)cc(C(C)Nc3ccccc3)c(O)c2n1 (stereo not shown) [Compound 33, 2,5-Dimethyl-7-(1-(phenylamino)ethyl)quinolin-8-ol]
GI50 (PANC-1 (pancreatic)): 56.3 ± 9.4 µM
IC50 (GLI1 mRNA expression [1]; Table 7, GLI1 mRNA): 8.8 ± 2.7 µM
GI50 (ASZ001 cells; Table 7, 48 h): 29.5 ± 5.1 µM
IC50 (GLI1 mRNA expression [2]; ASZ001, Table 7, GLI1 mRNA): 7.1 ± 2 µM

CCNc1cccc(C(Nc2ccccn2)c2ccc3ccc(C)nc3c2O)c1 (stereo not shown) [Compound 38, 7-((3-Ethylaminophenyl)(pyridin-2-ylamino)methyl)-2-methylquinolin-8-ol]
IC50 (GLI1 mRNA expression [1]; Table 7, GLI1 mRNA): 10.6 ± 2.6 µM
GI50 (ASZ001 cells; Table 7, 48 h): > 100 µM
IC50 (GLI1 mRNA expression [2]; ASZ001, Table 7, GLI1 mRNA): 19.3 ± 5 µM

CCN(CC)c1ccc(C(C)(Nc2ccccn2)c2ccc3ccc(C)nc3c2O)cc1 (stereo not shown) [Compound 28, 7-(1-(4-(Diethylamino)phenyl)-1-(pyridin-2-ylamino)ethyl)-2-methylquinolin-8-ol]
IC50 (GLI1 mRNA expression [1]; Table 5, GLI1 mRNA): 2.1 ± 0.6 µM
GI50 (ASZ001 cells; Table 5, 48 h): 25.1 ± 4.2 µM
IC50 (GLI1 mRNA expression [2]; ASZ001, Table 5, GLI1 mRNA): 7.2 ± 1.1 µM

Cc1ccc2ccc(C(Nc3ccccn3)c3ccc(-n4cccn4)cc3)c(O)c2n1 (stereo not shown) [Compound 52, 7-((4-(1H-Pyrazol-1-yl)phenyl)(pyridin-2-ylamino)methyl)-2-methylquinolin-8-ol]
IC50 (GLI1 mRNA expression [1]; Table 7, GLI1 mRNA): 1.5 ± 0.3 µM
Kd (GLI1-ZFD; Table 7, Ave ± SEM): 10.5 ± 4.4 µM
GI50 (ASZ001 cells; Table 7, 48 h): 37.2 ± 4.8 µM
IC50 (GLI1 mRNA expression [2]; ASZ001, Table 7, GLI1 mRNA): 2.7 ± 0.9 µM

CCN(CC)c1cccc(C(Nc2ccccn2)c2ccc3ccc(C)nc3c2O)c1 (stereo not shown) [Compound 36, 7-((3-Diethylaminophenyl)(pyridin-2-ylamino)methyl)-2-methylquinolin-8-ol]
IC50 (GLI1 mRNA expression [1]; Table 7, GLI1 mRNA): 5.6 ± 1.5 µM
GI50 (ASZ001 cells; Table 7, 48 h): 82.5 ± 20.3 µM
IC50 (GLI1 mRNA expression [2]; ASZ001, Table 7, GLI1 mRNA): 15.1 ± 4.1 µM
